# Reference: US8604280B2, “Glyphosate tolerant perennial ryegrass named ‘replay’” (J.R. Simplot Company, priority 2009, dated 2013)
# System: perennial ryegrass 96-3047
# Assay: Glyphosate applied at termination of the Maryland turf trial, plot survival
# Type: in vivo, Lolium perenne L.
# Settings: glyphosate at 2-quarts per acre; plot 96-3047, Maryland trial, 1999; only plot in the trial not killed
# Description: ‘Replay’ was developed from a greenhouse cross made in 1992 of perennial ryegrass ‘APM’ (registered, Reg. No. CV-185, PI 565096) pollinated by perennial ryegrass ‘Birdie II’ (registered, Reg. No. 133, PI 537452) in Post Falls, Id. Progeny of this cross was planted in a 1992 spaced-plant nursery in Post Falls, Id., and designated as 92-0226. An open-pollinated selection from this population, designated as 93-0736, was harvested and planted in company turf trials in Post Falls, Id., and Poolesville, Md., in 1993. In 1995, plugs of 93-0736 were pulled from the Maryland plot based on the desirable characteristics of dark green color and turf performance, and then planted in a spaced-plant nursery in Post Falls, Id. In 1996, the perennial ryegrass 96-3047 was selected from this population and planted in company turf trials in both Post Falls, Id., and Poolesville, Md.
# In 1999, during the termination of the Maryland trial, 96-3047 was the only plot in the trial that was not killed when glyphosate at the rate of 2-quarts per acre was applied. Survival in the plot was estimated at 30% and plugs were pulled, coded as 99-0089, and 200 plants of 99-0089 were planted in an isolation block in the 1999 Post Falls, Id. nursery.
compound,measurement,value
"O=C(O)CNCP(=O)(O)O [glyphosate, N-(phosphonomethyl) glycine]",Survival in the plot,~30%
